Reference: PMC8835499, “Challenging Approach to the Development of Novel Estrogen Receptor Modulators Based on the Chemical Properties of Guaiazulene” (International Journal of Molecular Sciences, 2022)

Target: T1, estrogen receptor α (ERα) (Homo sapiens, UniProt P03372)
T1 construct: gene ESR1; ERα LBD (human recombinant ERα)
T1 sequence (P03372 311-547 limits assumed): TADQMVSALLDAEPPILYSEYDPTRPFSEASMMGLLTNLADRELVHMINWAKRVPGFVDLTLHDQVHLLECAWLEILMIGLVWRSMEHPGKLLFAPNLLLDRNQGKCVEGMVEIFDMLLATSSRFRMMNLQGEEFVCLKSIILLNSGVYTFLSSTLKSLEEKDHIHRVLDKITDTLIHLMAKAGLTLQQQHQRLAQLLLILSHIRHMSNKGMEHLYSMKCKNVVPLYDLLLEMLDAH
Experiment: competitive radioligand binding assay with [3H][…]β-estradiol (nitrocellulose filtration)

`Cc1cc(C=C(c2ccc(O)cc2)c2ccc(O)cc2)c2c(C)ccc(C(C)C)cc1-2` [Az-01, 4,4′-(2-(5-Isopropyl-3,8-dimethylazulen-1-yl)ethene-1,1-diyl)diphenol] gave an IC50 of 1.22 nM.
